The results in this text go back to patent US20260199367A1, “PLK1 DEGRADATION INDUCING COMPOUNDS WITH INCREASED RIGIDITY” (UPPTHERA, INC., priority 2022, published 2026).

Holding throughout (format): cell-based
One assay has as its target T1, PLK1 (Homo sapiens, UniProt P53350).
T1 construct: endogenous in cells; host or cells: HeLa LgBit (PLK1-HiBit KI): HeLa cells stably expressing LgBit, with CRISPR/Cas9 knock-in of HiBit at the endogenous PLK1 locus
Kind of assay: Luciferase assay for PLK1 in HeLa LgBit (PLK1-HiBit KI) cell line. The following applies: released after thymidine block, compound 300 nM, luminescence after 9 hours. The method, then: A HeLa cell line in which the LgBit vector was transfected and expressed stably was prepared. Then, after constructing gRNA and donor to express the HiBit amino acid sequence behind the C-terminal of the PLK1 gene, which was inherent in the cell, it was inserted into the cell together with a vector capable of expressing CRISPR/Cas9. Only the cells in which the insertion was completed and knock-in had progressed were selected, sub-cultured and used.
The compounds of Examples were completely dissolved in DMSO (Sigma-Aldrich Cat. No. D2438, Lot. No. RNBL5438) and used in the experiment.
In the case of HeLa LgBit (Plk1-HiBit KI), the compounds were treated after being released after thymidine block, and the process was as follows. Thymidine (Sigma-Aldrich Cat. No. T9250-5G) was completely dissolved in ddH2O and used in the experiment. For thymidine block, the products were treated with 2 mM of thymidine and then incubated for 24 hours. For release and chemical treatment, the medium was suctioned and washed with 1×PBS. TrypLE™ was added and incubated in 37° C. CO2 incubator (Thermo Fisher Science, Cat. No. 4111) for 5 mins. Cells neutralized by adding complete media were counted through a counter. For each well of a 96-well culture plate (SPL), 3.3×10^4 cells and a total medium volume of 150 μl were seeded and incubated in a CO2 incubator.
Each cell line was incubated in a CO2 incubator for 18 hours, and Endurazine (Promega, Cat. No. N257B) was added to each well to make up 4% of the total volume. After adding compounds of Examples in a 96-well white plate (SPL) to a concentration of 300 nM, the wavelength of the plate reader (BMG Labtech, CLARIOstar Plus) was set to 470-480 nM, and then the luminescence was tracked in real time.
For orientation: HiBiT is a short tag that completes a luciferase, so light tracks the accessible tagged protein.

Assay [1] has as its system NCI-H526 (H526) cell line. Kind of assay: Cell viability assay for NCI-H526 cell line. Particulars: Homo sapiens, NCI-H526, 120 h, 5 days, EZ-Cytox, 0.46-3000 nM. An excerpt: (§1) The NCI-H69 (hereafter H69) and NCI-H526 (hereafter H526) cell lines were purchased from Korea Cell Line Bank (KCLB, Seoul, Korea). For cell culture, RPMI 1640 (Gibco, Cat. No. 22400-089; Lot. No. 2537146), FBS (Gibco, Cat. No. 16000-044; Lot. No. 2511328P), Penicillin/Streptomycin (PS) (Gibco, Cat. No. 15140-122; Lot. No. 2441887), 75T cell culture flask (SPL, Cat. No. 71075), 175T cell culture flask (SPL, Cat. No. 71175), 96-well cell culture plate (SPL, Cat. No. 30096), PBS pH 7.4 (Gibco, Cat. No. 10010-023; Lot. No. 2509235), TrypLE™ Express (Gibco, Cat. No. 12605-010; Lot. No. 2323417), Cell Counter (Hematocytometer)(As one, Cat. No. 4-458-01), and 0.4% Trypan Blue Solution (DYNEBIO, Cat. No. CBT3710; Lot. No. 20221111) were used.
(§2) The compounds of Examples were completely dissolved in DMSO (Sigma-Aldrich Cat. No. D2438, Lot. No. RNBL7287) and used in the experiment. 3×10^4 cells were seeded for each well of a 96-well plate (SPL), and the cells were cultured in total volume of 150 μl. Each compound was diluted 3-folds from the highest concentration of 3000 nM to the lowest concentration of 0.46 nM. After treating the compound to each well to make the total volume of 200 μl, it was cultured in a CO2 incubator (Thermo Fisher Science, Cat. No. 4111) for 5 days. Then, after treating EZ-Cytox (DOGEN, Cat.NO. EZ-3000, Lot. No. DLS2308) 20 μl in each well, it was cultured in CO2 incubator for 4 hours. The absorbance of the completely cultured sample was measured by setting the wavelength of a plate reader (BMG Labtech, CLARIOstar Plus) to […], and was measured after shaking for 3 minutes in a plate reader before measurement.
(§3) (A: IC50 is less than 20 nM, B: IC50 is 50 nM or less, C: IC50 is 100 nM or less)

In the next assay the test system is NCI-H69 (H69) cell line. Kind of assay: Cell viability assay for NCI-H69 cell line. Particulars: Homo sapiens, NCI-H69, 120 h, 5 days, EZ-Cytox, 0.46-3000 nM.
Description: as §1, §2, §3

Molecules are shown by their SMILES.

T1 sequence (P53350 whole entry): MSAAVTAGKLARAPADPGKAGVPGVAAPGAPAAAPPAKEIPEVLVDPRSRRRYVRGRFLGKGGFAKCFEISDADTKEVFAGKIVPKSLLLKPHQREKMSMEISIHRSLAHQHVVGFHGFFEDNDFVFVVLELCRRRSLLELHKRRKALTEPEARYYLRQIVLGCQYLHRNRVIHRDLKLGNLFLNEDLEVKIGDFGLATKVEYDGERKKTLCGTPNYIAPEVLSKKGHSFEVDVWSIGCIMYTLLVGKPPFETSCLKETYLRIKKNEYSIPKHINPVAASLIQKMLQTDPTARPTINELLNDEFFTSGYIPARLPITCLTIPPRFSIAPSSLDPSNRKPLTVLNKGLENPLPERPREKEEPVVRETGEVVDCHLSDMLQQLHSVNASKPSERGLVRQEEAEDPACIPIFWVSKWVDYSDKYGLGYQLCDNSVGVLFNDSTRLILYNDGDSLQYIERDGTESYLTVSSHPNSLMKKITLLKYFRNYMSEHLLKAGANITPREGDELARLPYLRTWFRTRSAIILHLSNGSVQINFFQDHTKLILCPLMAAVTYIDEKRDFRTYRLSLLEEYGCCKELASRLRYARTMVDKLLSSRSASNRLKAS

As a reminder, the IC50 is the point on the concentration scale where inhibition reaches its midpoint. Take `CC[C@@H]1C(=O)N(C)c2cnc(Nc3ccc(C(=O)NC4CCC(N5CCC(NCc6cccc7c6CN(C6CCC(=O)NC6=O)C7=O)CC5)CC4)cc3OC)nc2N1C1CCCC1` (stereo partly drawn) [Compound 12, 4-(((R)-8-cyclopentyl-7-ethyl-5-methyl-6-oxo-5,6,7,8-tetrahydropteridin-2-yl)amino)-N-((1r,4R)-4-(4-(((2-(2,6-dioxopiperidin-3-yl)-1-oxoisoindolin-4-yl)methyl)amino)piperidin-1-yl)cyclohexyl)-3-methoxybenzamide]: the “Value (luminescence value, PLK1-HiBit)” value on PLK1 was 0.372. The IC50 in assay [1] was at most 0.05 µM; with NCI-H69 (H69) cell line, at most 0.1 µM.
Taken in the same sequence, the figures for `CC[C@@H]1C(=O)N(C)c2cnc(Nc3ccc(C(=O)NCC4CCN(CC5CCN(c6ccc(NC7CCC(=O)NC7=O)cc6)CC5)CC4)cc3OC)nc2N1C1CCCC1` (stereo partly drawn) [Compound 13, 4-(((R)-8-cyclopentyl-7-ethyl-5-methyl-6-oxo-5,6,7,8-tetrahydropteridin-2-yl)amino)-N-((1-((1-(4-((2,6-dioxopiperidin-3-yl)amino)phenyl)piperidin-4-yl)methyl)piperidin-4-yl)methyl)-3-methoxybenzamide] were 0.165, below 0.02 µM and at most 0.1 µM.
Taken in the same sequence, the figures for `CC[C@@H]1C(=O)N(C)c2cnc(Nc3ccc(C(=O)NC4CCN(C(=O)CCN5CCN(c6ccc(NC7CCC(=O)NC7=O)cc6)CC5)CC4)cc3OC(F)(F)F)nc2N1C1CCCC1` (stereo partly drawn) [Compound 14, 4-(((R)-8-cyclopentyl-7-ethyl-5-methyl-6-oxo-5,6,7,8-tetrahydropteridin-2-yl)amino)-N-(1-(3-(4-(4-((2,6-dioxopiperidin-3-yl)amino)phenyl)piperazin-1-yl)propanoyl)piperidin-4-yl)-3-(trifluoromethoxy)benzamide] were 0.269, below 0.02 µM and at most 0.05 µM.
As to `CC[C@@H]1C(=O)N(C)c2cnc(Nc3ccc(-c4nnc(CNC5CCN(C(=O)C(N)CN6CCN(c7ccc(C8CCC(=O)NC8=O)cc7)CC6)CC5)o4)cc3OC)nc2N1C1CCCC1` (stereo partly drawn) [Compound 15, 3-(4-(4-(2-amino-3-(4-(((5-(4-(((R)-8-cyclopentyl-7-ethyl-5-methyl-6-oxo-5,6,7,8-tetrahydropteridin-2-yl)amino)-3-methoxyphenyl)-1,3,4-oxadiazol-2-yl)methyl)amino)piperidin-1-yl)-3-oxopropyl)piperazin-1-yl)phenyl)piperidine-2,6-dione], the “Value (luminescence value, PLK1-HiBit)” value on PLK1 stood at 0.345. The IC50 in assay [1] was at most 0.05 µM; in the assay with NCI-H69 (H69) cell line, at most 0.1 µM.
For `CC[C@@H]1C(=O)N(C)c2cnc(Nc3ccc(-c4nnc(CNC5CCC(N6CCC(NCc7ccc(C8CCC(=O)NC8=O)cc7)CC6)CC5)o4)cc3OC)nc2N1C1CCCC1` (stereo partly drawn) [Compound 16, 3-(4-(((1-((1r,4r)-4-(((5-(4-(((R)-8-cyclopentyl-7-ethyl-5-methyl-6-oxo-5,6,7,8-tetrahydropteridin-2-yl)amino)-3-methoxyphenyl)-1,3,4-oxadiazol-2-yl)methyl)amino)cyclohexyl)piperidin-4-yl)amino)methyl)phenyl)piperidine-2,6-dione], in that order: 0.263, at most 0.05 µM and at most 0.1 µM.
As for `CC[C@@H]1C(=O)N(C)c2cnc(Nc3ccc(-c4nnc(CNC5CCC(NCC6CCN(c7ccc(C8CCC(=O)NC8=O)cc7F)CC6)CC5)o4)cc3OC)nc2N1C1CCCC1` (stereo partly drawn) [Compound 17, 3-(4-(4-((((1r,4r)-4-(((5-(4-(((R)-8-cyclopentyl-7-ethyl-5-methyl-6-oxo-5,6,7,8-tetrahydropteridin-2-yl)amino)-3-methoxyphenyl)-1,3,4-oxadiazol-2-yl)methyl)amino)cyclohexyl)amino)methyl)piperidin-1-yl)-3-fluorophenyl)piperidine-2,6-dione], the “Value (luminescence value, PLK1-HiBit)” value on PLK1 was determined as 0.172. Also, the results for the IC50 (in assay [1]; in the assay with NCI-H69 (H69) cell line) were below 0.02 µM and at most 0.05 µM, respectively.
For `CC[C@@H]1C(=O)N(C)c2cnc(Nc3ccc(C(=O)NC4CCC(NCC5CCN(c6ccc(C7CCC(=O)NC7=O)cc6F)CC5)CC4)cc3OC)nc2N1C1CCCC1` (stereo partly drawn) [Compound 18, 4-(((R)-8-cyclopentyl-7-ethyl-5-methyl-6-oxo-5,6,7,8-tetrahydropteridin-2-yl)amino)-N-((1r,4R)-4-(((1-(4-(2,6-dioxopiperidin-3-yl)-2-fluorophenyl)piperidin-4-yl)methyl)amino)cyclohexyl)-3-methoxybenzamide], in that order: 0.111, below 0.02 µM and below 0.02 µM.
As to `CC[C@@H]1C(=O)N(C)c2cnc(Nc3ccc(C(=O)NN4CCC(C(N)CN5CCN(c6ccc(C7CCC(=O)NC7=O)cc6F)CC5)CC4)cc3OC)nc2N1C1CCCC1` (stereo partly drawn) [Compound 19, N-(4-(1-amino-2-(4-(4-(2,6-dioxopiperidin-3-yl)-2-fluorophenyl)piperazin-1-yl)ethyl)piperidin-1-yl)-4-(((R)-8-cyclopentyl-7-ethyl-5-methyl-6-oxo-5,6,7,8-tetrahydropteridin-2-yl)amino)-3-methoxybenzamide], the “Value (luminescence value, PLK1-HiBit)” value at PLK1 is listed as 0.132. The IC50 (in assay [1]; in the assay with NCI-H69 (H69) cell line) was at most 0.05 µM in each case.
Turning to `CC[C@@H]1C(=O)N(C)c2cnc(Nc3ccc(C(=O)NC4CCC(N5CCN(CCc6ccc(C7CCC(=O)NC7=O)cc6)CC5)CC4)cc3OC)nc2N1C1CCCC1` (stereo partly drawn) [Compound 20, 4-(((R)-8-cyclopentyl-7-ethyl-5-methyl-6-oxo-5,6,7,8-tetrahydropteridin-2-yl)amino)-N-((1r,4R)-4-(4-(4-(2,6-dioxopiperidin-3-yl)phenethyl)piperazin-1-yl)cyclohexyl)-3-methoxybenzamide], the “Value (luminescence value, PLK1-HiBit)” value at PLK1 stood at 0.154. The IC50 (in assay [1]; with NCI-H69 (H69) cell line) was below 0.02 µM throughout.
As for `CC[C@@H]1C(=O)N(C)c2cnc(Nc3ccc(C(=O)NN4CCC(N5CCC(CNc6ccc(C7CCC(=O)NC7=O)cc6)CC5)CC4)cc3OC)nc2N1C1CCCC1` (stereo partly drawn) [Compound 21, 4-(((R)-8-cyclopentyl-7-ethyl-5-methyl-6-oxo-5,6,7,8-tetrahydropteridin-2-yl)amino)-N-(4-(((4-(2,6-dioxopiperidin-3-yl)phenyl)amino)methyl)-[1,4′-bipiperidin]-1′-yl)-3-methoxybenzamide], the “Value (luminescence value, PLK1-HiBit)” value at PLK1 came to 0.144. Also, the IC50 (in assay [1]; with NCI-H69 (H69) cell line) was below 0.02 µM throughout.
For the compound `CC[C@@H]1C(=O)N(C)c2cnc(Nc3ccc(C(=O)NC4CCN(C5CCN(CCc6ccc(C7CCC(=O)NC7=O)cc6)CC5)CC4)cc3OC)nc2N1C1CCCC1` (stereo partly drawn) [Compound 22, 4-(((R)-8-cyclopentyl-7-ethyl-5-methyl-6-oxo-5,6,7,8-tetrahydropteridin-2-yl)amino)-N-(1′-(4-(2,6-dioxopiperidin-3-yl)phenethyl)-[1,4′-bipiperidin]-4-yl)-3-methoxy benzamide], the “Value (luminescence value, PLK1-HiBit)” value at PLK1 was 0.145. Also, the IC50 was below 0.02 µM in assay [1] and at most 0.05 µM with NCI-H69 (H69) cell line.
